Experimental data reported in ChEMBL document CHEMBL3885881, “DrugMatrix”.

Organism: Rattus norvegicus
Test: DrugMatrix - Regimen: Daily Repeat
Assay type: toxicity, organism-based, Sprague-Dawley
Parameters: regimen Daily Repeat, gender Male, age 6-8 weeks
Details: in vivo, iv, vehicle 100 % SALINE; for ABSOLUTE BASOPHIL / ABSOLUTE EOSINOPHIL / ABSOLUTE LYMPHOCYTE / ABSOLUTE MONOCYTE / ABSOLUTE SEGMENTED NEUTROPHIL / BASOPHIL / EOSINOPHIL / ERYTHROCYTE COUNT / HEMATOCRIT / HEMOGLOBIN / LEUKOCYTE COUNT / LYMPHOCYTE / MEAN CORPUSCULAR HEMOGLOBIN / MEAN CORPUSCULAR HEMOGLOBIN CONCENTRATION / MEAN CORPUSCULAR VOLUME / MONOCYTE / NEUTROPHIL / NUCLEATED RED BLOOD CELLS / PLATELET COUNT: tissue Blood; for ALANINE AMINOTRANSFERASE / ALBUMIN / ALKALINE PHOSPHATASE / ASPARTATE AMINOTRANSFERASE / BLOOD UREA NITROGEN / CARBON DIOXIDE / CHLORIDE / CHOLESTEROL / CREATINE PHOSPHOKINASE / CREATININE / GLUCOSE / LACTATE DEHYDROGENASE / LIPASE / PHOSPHORUS / POTASSIUM / SODIUM / TOTAL BILIRUBIN / TOTAL PROTEIN / URIC ACID: tissue Plasma
[1] = 0.02 mg/kg, 72 h, dose level Low, time 3 day
[2] = 0.02 mg/kg, 120 h, dose level Low, time 5 day
[3] = 43 mg/kg, 72 h, dose level High, time 3 day

Structure (SMILES): CC(CCc1ccc(O)cc1)NCCc1ccc(O)c(O)c1 (stereo unspecified) [DOBUTAMINE]
- ABSOLUTE BASOPHIL [1]: 0 CELLS/uL
- ABSOLUTE EOSINOPHIL [1]: 0 CELLS/uL
- ABSOLUTE LYMPHOCYTE [1]: 16404 CELLS/uL
- ABSOLUTE MONOCYTE [1]: 67.67 CELLS/uL
- ABSOLUTE SEGMENTED NEUTROPHIL [1]: 1828.33 CELLS/uL
- BASOPHIL [1]: 0%
- EOSINOPHIL [1]: 0%
- ERYTHROCYTE COUNT [1]: 5.5 x10E6/uL
- HEMATOCRIT [1]: 35.6%
- HEMOGLOBIN [1]: 13.9 G/DL
- LEUKOCYTE COUNT [1]: 18.3 x10E3/uL
- LYMPHOCYTE [1]: 89.67%
- MEAN CORPUSCULAR HEMOGLOBIN [1]: 25.27 pg
- MEAN CORPUSCULAR HEMOGLOBIN CONCENTRATION [1]: 39.03 G/DL
- MEAN CORPUSCULAR VOLUME [1]: 64.67 fL
- MONOCYTE [1]: 0.33%
- NEUTROPHIL [1]: 10%
- NUCLEATED RED BLOOD CELLS [1]: 0 /100WBC
- PLATELET COUNT [1]: 1067.33 x10E3/uL
- ALANINE AMINOTRANSFERASE [1]: 57.33 u/L
- ALBUMIN [1]: 4.07 G/DL
- ALKALINE PHOSPHATASE [1]: 391.33 u/L
- ASPARTATE AMINOTRANSFERASE [1]: 107.33 u/L
- BLOOD UREA NITROGEN [1]: 15.67 mg/dL
- CARBON DIOXIDE [1]: 28 mmol/L
- CHLORIDE [1]: 97.33 MEQ/L
- CHOLESTEROL [1]: 78 mg/dL
- CREATINE PHOSPHOKINASE [1]: 548.67 u/L
- CREATININE [1]: 0.13 mg/dL
- GLUCOSE [1]: 175.33 mg/dL
- LACTATE DEHYDROGENASE [1]: 236 u/L
- LIPASE [1]: 10.33 u/L
- PHOSPHORUS [1]: 12.27 mg/dL
- POTASSIUM [1]: 7.46 MEQ/L
- SODIUM [1]: 141.6 MEQ/L
- TOTAL BILIRUBIN [1]: 0.3 mg/dL
- TOTAL PROTEIN [1]: 5.77 G/DL
- URIC ACID [1]: 1.63 mg/dL
- ABSOLUTE BASOPHIL [2]: 0 CELLS/uL
- ABSOLUTE EOSINOPHIL [2]: 0 CELLS/uL
- ABSOLUTE LYMPHOCYTE [2]: 19433.33 CELLS/uL
- ABSOLUTE MONOCYTE [2]: 145.67 CELLS/uL
- ABSOLUTE SEGMENTED NEUTROPHIL [2]: 1621 CELLS/uL
- BASOPHIL [2]: 0%
- EOSINOPHIL [2]: 0%
- ERYTHROCYTE COUNT [2]: 5.54 x10E6/uL
- HEMATOCRIT [2]: 35.5%
- HEMOGLOBIN [2]: 14 G/DL
- LEUKOCYTE COUNT [2]: 21.2 x10E3/uL
- LYMPHOCYTE [2]: 92%
- MEAN CORPUSCULAR HEMOGLOBIN [2]: 25.27 pg
- MEAN CORPUSCULAR HEMOGLOBIN CONCENTRATION [2]: 39.47 G/DL
- MEAN CORPUSCULAR VOLUME [2]: 64.03 fL
- MONOCYTE [2]: 0.67%
- NEUTROPHIL [2]: 7.33%
- NUCLEATED RED BLOOD CELLS [2]: 0.33 /100WBC
- PLATELET COUNT [2]: 1240.33 x10E3/uL
- ALANINE AMINOTRANSFERASE [2]: 61 u/L
- ALBUMIN [2]: 4.03 G/DL
- ALKALINE PHOSPHATASE [2]: 438.67 u/L
- ASPARTATE AMINOTRANSFERASE [2]: 84.33 u/L
- BLOOD UREA NITROGEN [2]: 18.67 mg/dL
- CARBON DIOXIDE [2]: 27.33 mmol/L
- CHLORIDE [2]: 101.33 MEQ/L
- CHOLESTEROL [2]: 73.33 mg/dL
- CREATINE PHOSPHOKINASE [2]: 325 u/L
- CREATININE [2]: 0.14 mg/dL
- GLUCOSE [2]: 163 mg/dL
- LACTATE DEHYDROGENASE [2]: 262.67 u/L
- LIPASE [2]: 8.67 u/L
- PHOSPHORUS [2]: 11.8 mg/dL
- POTASSIUM [2]: 7.21 MEQ/L
- SODIUM [2]: 140.77 MEQ/L
- TOTAL BILIRUBIN [2]: 0.13 mg/dL
- TOTAL PROTEIN [2]: 6.03 G/DL
- URIC ACID [2]: 1.63 mg/dL
- ABSOLUTE BASOPHIL [3]: 0 CELLS/uL
- ABSOLUTE EOSINOPHIL [3]: 0 CELLS/uL
- ABSOLUTE LYMPHOCYTE [3]: 11605 CELLS/uL
- ABSOLUTE MONOCYTE [3]: 107 CELLS/uL
- ABSOLUTE SEGMENTED NEUTROPHIL [3]: 488 CELLS/uL
- BASOPHIL [3]: 0%
- EOSINOPHIL [3]: 0%
- ERYTHROCYTE COUNT [3]: 5.51 x10E6/uL
- HEMATOCRIT [3]: 36.1%
- HEMOGLOBIN [3]: 14.37 G/DL
- LEUKOCYTE COUNT [3]: 12.2 x10E3/uL
- LYMPHOCYTE [3]: 95%
- MEAN CORPUSCULAR HEMOGLOBIN [3]: 26.1 pg
- MEAN CORPUSCULAR HEMOGLOBIN CONCENTRATION [3]: 39.8 G/DL
- MEAN CORPUSCULAR VOLUME [3]: 65.6 fL
